From patent US5607926A, “Cephalosporin antibiotics” (Microcide Pharmaceuticals, Inc., priority 1995, dated 1997)
In brackets after ≈: the same amount, converted by molar mass. Counter-ions that a name gives are not always drawn. Like-named read-outs stand apart in the source and are kept apart here.

What was measured:
Assay type in all cases: cell-based
[1] = system: S. epidermidis ATCC 31432; assay: In vitro antibacterial evaluation, MIC by agar dilution, S. epidermidis ATCC 31432; conditions: Staphylococcus epidermidis, ATCC31432
Protocol: (§1) The compounds of the invention were evaluated against several β-lactamresistant bacteria strains by determining the minimum inhibitory concentration (MIC, μg/ml) of each compound with respect to each strain. The MIC, the lowest concentration of antibiotic which inhibits growth of the test organism, was determined by the agar dilution method.
(§2) To determine the MIC for bacterial isolates, the test compound was incorporated in a series of two-fold dilutions into liquified Mueller-Hinton agar. Upon solidification, a number of different bacterial strains were spot inoculated with a replicating device onto the agar surface. […] The procedures used in these studies have been standardized by the National Committee for Clinical Laboratory Standards (NCCLS), as per the NCCLS publication entitled METHODS FOR DILUTION ANTIMICROBIAL SUSCEPTIBILITY TESTS (1991), which is incorporated herein by reference.
(§3) Aliquots of antimicrobial agents were prepared in phosphate buffered saline (PBS) at pH 7.2. Tween 20 or DMSO was used as a solubilizing vehicle as needed. Standard methods of vortexing, sonicating and gentle heat were used to facilitate solubilizing the test agent. Typically, the concentration of the stock solution was 10× that of the highest drug concentration tested. A 1.28 mg/mL stock solution was used with a subsequent highest working concentration of 128 μg/mL. Serial two-fold dilutions were done through ≤0.25 μg/mL. Each drug level was tested in duplicate. Two-fold drug dilutions were done in sterile 50 mL tubes with a final drug volume of 5 mL. Upon the addition of 45 mL of molten agar, a 10-fold dilution resulted. Two, 25 mL. plates were then poured into 15×150 mm square Petri plates with grids and allowed to harden.
(§4) A control plate with a reference drug, either cefotaxime, vancomycin or imipenem, was used as the positive growth control. Stock concentrations of reference antibiotics were prepared and frozen at -80° C. Upon preparation, the control plates were sealed and stored in the refrigerator for up to 1 week prior to use; however, imipenem control plates had to be prepared just prior to use. All test plates were used within 24 hours of preparation.
(§5) Satisfactory results were obtained where the inoculum contained about 10^4 colony forming units (cfu) ±0.5 logs. Starting with pure cultures of the test isolates on agar plates, a few isolated colonies were transferred to a tube of nutrient broth and allowed to grow 4-6 hours at 35°-36° C. to reach log-phase growth. Dropwise addition of the broth culture to PBS was done to match a 0.5 McFarland turbidity standard equal to 10^8 cfu/mL. This was further diluted ten-fold in PBS to reach a working inoculum concentration of 10^7 cfu/mL. When 1 μL of the working inoculum was applied to the agar surface a concentration of about 10^4 cfu per spot was obtained.
(§6) Disposable sterile 1 μL loops were used to inoculate test plates, with each isolate in a designated grid on the agar plate. An alternate method of inoculation involved the use of a replica plater, a device with 48 steel pins allowing the simultaneous inoculation of multiple isolates. After the spots had dried, the plates were incubated at 35°-36° C. for 16-20 hours. Endpoints were assessed as the minimum inhibitory concentration (MIC) of antimicrobial agent.

[2] = system: S. aureus 76 (Meth^R)(lac^+); assay: In vitro antibacterial evaluation, MIC by agar dilution, S. aureus 76; conditions: Staphylococcus aureus, read-out: MIC
Protocol: as §1, §2, §3, §4, §5, §6

S. haemolyticus (Meth^R) = assay: In vitro antibacterial evaluation, MIC by agar dilution, S. haemolyticus; conditions: Staphylococcus haemolyticus, read-out: MIC
Protocol: as §1, §2, §3, §4, §5, §6

E. faecium ATCC 35667 = assay: In vitro antibacterial evaluation, MIC by agar dilution, E. faecium ATCC 35667; conditions: Enterococcus faecium, ATCC35667, read-out: MIC
Protocol: as §1, §2, §3, §4, §5, §6

E. coli ATCC 25922 = assay: In vitro antibacterial evaluation, MIC by agar dilution, E. coli ATCC 25922; conditions: Escherichia coli, ATCC25922, read-out: MIC
Protocol: as §1, §2, §3, §4, §5, §6

S. aureus ATCC 29213 = assay: In vitro antibacterial evaluation, MIC by agar dilution, S. aureus ATCC 29213; conditions: Staphylococcus aureus, ATCC29213
Protocol: as §1, §2, §3, §4, §5, §6

[3] = system: S. aureus Col8A (Meth^S)(lac^-); assay: In vitro antibacterial evaluation, MIC by agar dilution, S. aureus Col8A; conditions: Staphylococcus aureus
Protocol: as §1, §2, §3, §4, §5, §6
The novel agents of this invention are notable for their enhanced activity against S. aureus Col and Enterococci (E. faecium and E. faecalis). The S. aureus Col strain is a high-level PBP2a producer, whereas S. aureus Col 8A, its isogenic partner, lacks PBP2a. […] Thus, the compounds of the present invention are effective against PBP2a-producing bacteria.

E. faecalis ATCC 29212 = assay: In vitro antibacterial evaluation, MIC by agar dilution, E. faecalis ATCC 29212; conditions: Enterococcus faecalis, ATCC29212; E. faecalis ATCC 29212; read-out: MIC
Protocol: as §1, §2, §3, §4, §5, §6

P. aeruginosa ATCC 27853 = assay: In vitro antibacterial evaluation, MIC by agar dilution, P. aeruginosa ATCC 27853; conditions: Pseudomonas aeruginosa, ATCC27853, read-out: MIC
Protocol: as §1, §2, §3, §4, §5, §6

[4] = S. epidermidis ATCC 31432, read-out: MIC
[5] = S. aureus ATCC 29213, read-out: MIC

| SMILES | MIC [1, 4] [µg/mL] | MIC [2] [µg/mL] | MIC (S. haemolyticus (Meth^R)) [µg/mL] | MIC (E. faecium ATCC 35667) [µg/mL] | MIC (E. coli ATCC 25922) [µg/mL] | MIC (S. aureus ATCC 29213) [µg/mL] | MIC [1] [µg/mL] | MIC [3] [µg/mL] | MIC (S. aureus ATCC 29213; [5]) [µg/mL] | MIC (E. faecalis ATCC 29212) [µg/mL] | MIC (P. aeruginosa ATCC 27853) [µg/mL] |
| --- | --- | --- | --- | --- | --- | --- | --- | --- | --- | --- | --- |
| O=C(Cc1ccccc1)N[C@@H]1C(=O)N2C(C(=O)O)=C(Sc3cc(Cl)ccc3Cl)CS[C@H]12 [Cmpd 16, (7R)-7-[(Phenylacetyl)amino]-3-(2,5-dichlorophenylthio)-3-cephem-4-carboxylic acid] | < 0.5 | 4 (≈ 8.07 µM) | 16 (≈ 32.3 µM) | 4 (≈ 8.07 µM) | > 16 |  |  |  |  |  |  |
| O=C(Cc1ccccc1)N[C@@H]1C(=O)N2C(C(=O)O)=C(Sc3ccc(Cl)c(Cl)c3)CS[C@H]12 [Cmpd 18, (7R)-7-[(Phenylacetyl)amino]-3-(3,4-dichlorophenylthio)-3-cephem-4-carboxylic acid] |  | 16 (≈ 32.3 µM) | 32 (≈ 64.6 µM) | 4 (≈ 8.07 µM) | > 32 | < 0.25 | < 0.25 | < 0.25 |  |  |  |
| COC(=O)c1ccccc1SC1=C(C(=O)O)N2C(=O)[C@@H](NC(=O)Cc3ccccc3)[C@H]2SC1 [Cmpd 19, (7R)-7-[(Phenylacetyl)amino]-3-(o-carbomethoxyphenylthio)-3-cephem-4-carboxylic acid] |  | 16 (≈ 33 µM) | 32 (≈ 66 µM) | 2 (≈ 4.13 µM) | > 32 | < 0.25 | < 0.25 | < 0.25 |  |  |  |
| O=C(Cc1cccs1)N[C@@H]1C(=O)N2C(C(=O)O)=C(Sc3ccccc3Br)CS[C@H]12 [Cmpd 20, (7R)-7-[(2-Thienylacetyl)amino]-3-(o-bromophenylthio)-3-cephem-4-carboxylic acid] |  | 4 (≈ 7.82 µM) | 8 (≈ 15.6 µM) | 2 (≈ 3.91 µM) | > 32 | < 0.25 | < 0.25 | < 0.25 |  |  |  |
| O=C(Cc1ccccc1)N[C@@H]1C(=O)N2C(C(=O)O)=C(Sc3cccc4oc5ccccc5c34)CS[C@H]12 [Cmpd 21, (7R)-7-[(Phenylacetyl)amino]-3-(dibenzofuranyl-1-thio)-3-cephem-4-carboxylic acid] |  | 4 (≈ 7.74 µM) | 32 (≈ 61.9 µM) | 4 (≈ 7.74 µM) | > 32 | < 0.25 | < 0.25 | < 0.25 |  |  |  |
| Nc1nc(/C(=N/O)C(=O)N[C@@H]2C(=O)N3C(C(=O)O)=C(Sc4ccccc4I)CS[C@H]23)cs1 [Cmpd 22, (7R)-7-[(Z)-2-(aminothiazol-4-yl)-2-(hydroxyimino)acetamido]-3-(o-iodophenylthio)-3-cephem-4-carboxylic acid] | < 0.25 | 4 (≈ 6.63 µM) | 4 (≈ 6.63 µM) | 2 (≈ 3.31 µM) | 4 (≈ 6.63 µM) |  |  | 0.5 (≈ 0.829 µM) | < 0.25 |  |  |
| N#Cc1ccc(-c2ccccc2SC2=C(C(=O)O)N3C(=O)[C@@H](NC(=O)Cc4ccccc4)[C@H]3SC2)cc1 [Cmpd 23, (7R)-7-[(Phenylacetyl)amino]-3-(2-(4-cyanophenyl)phenylthio)-3-cephem-4-carboxylic acid] |  | 8 (≈ 15.2 µM) | 16 (≈ 30.3 µM) | 2 (≈ 3.79 µM) | > 32 | < 0.25 | < 0.25 | < 0.25 |  |  |  |
| O=C(Cc1ccccc1)N[C@@H]1C(=O)N2C(C(=O)O)=C(Sc3cccc(Cl)c3Cl)CS[C@H]12 [Cmpd 24, (7R)-7-[(Phenylacetyl)amino]-3-(2,3-dichlorophenylthio)-3-cephem-4-carboxylic acid] |  | 4 (≈ 8.07 µM) | 8 (≈ 16.1 µM) | 2 (≈ 4.04 µM) | > 32 | < 0.25 | < 0.25 | < 0.25 |  |  |  |
| O=C(Cc1cccs1)N[C@@H]1C(=O)N2C(C(=O)O)=C(Sc3ccccc3I)CS[C@H]12 [Cmpd 25, (7R)-7-[(2-Thienylacetyl)amino]-3-(o-iodophenylthio)-3-cephem-4-carboxylic acid] | < 0.06 | 4 (≈ 7.16 µM) | 16 (≈ 28.7 µM) | 2 (≈ 3.58 µM) | > 32 | 0.125 (≈ 0.224 µM) |  | 0.125 (≈ 0.224 µM) |  |  |  |
| O=C(Cc1cccs1)N[C@@H]1C(=O)N2C(C(=O)O)=C(Sc3cc(Cl)ccc3Cl)CS[C@H]12 [Cmpd 26, (7R)-7-[(2-Thienylacetyl)amino]-3-(2,5-dichlorophenylthio)-3-cephem-4-carboxylic acid] |  | 4 (≈ 7.98 µM) | 8 (≈ 16 µM) | 2 (≈ 3.99 µM) | > 32 | < 0.25 | < 0.25 | < 0.25 |  |  |  |
| O=C(Cc1ccccc1)N[C@@H]1C(=O)N2C(C(=O)O)=C(Sc3ccccc3-c3ccco3)CS[C@H]12 [Cmpd 27, (7R)-7-[(Phenylacetyl)amino]-3-(2-(2-furyl)phenylthio)-3-cephem-4-carboxylic acid] |  | 4 (≈ 8.12 µM) | 16 (≈ 32.5 µM) | 1 (≈ 2.03 µM) | > 32 | < 0.25 | < 0.25 | < 0.25 |  |  |  |
| N=C(N)SCc1ccccc1SC1=C(C(=O)O)N2C(=O)[C@@H](NC(=O)Cc3ccc(CN)cc3)[C@H]2SC1 [Cmpd 124, (7R)-7-[((4-aminomethylphenyl)acetyl)amino]-3-(2-isothiouroniummethylphenylthio)-3-cephem-4-carboxylate, trifluoroacetic acid salt] |  | 16 | 16 | 1 | > 32 | 0.25 |  | 0.25 |  | 1 | > 32 |
| O=C(Cc1ccccc1)N[C@@H]1C(=O)N2C(C(=O)O)=C(Sc3ccccc3-n3cccn3)CS[C@H]12 [Cmpd 132, (7R)-7-[(Phenylacetyl)amino]-3-(2-(pyrazol-1-yl)phenylthio)-3-cephem-4-carboxylic acid] |  | 32 (≈ 65 µM) | > 32 | 4 (≈ 8.12 µM) | > 32 |  |  | 0.25 (≈ 0.508 µM) | 0.125 (≈ 0.254 µM) | 4 (≈ 8.12 µM) | > 32 |
| CSCC(=O)N[C@@H]1C(=O)N2C(C(=O)O)=C(Sc3ccccc3CSC(=N)NN)CS[C@H]12 [Cmpd 133, (7R)-7-[(methylthioacetyl)amino]-3-(2-(N-amino)isothiouroniummethylphenylthio)-3-cephem-4-carboxylate, inner salt] |  | 8 | 16 | 1 | > 32 | 0.125 |  | 0.125 |  | 1 | > 32 |
| N=C(N)SCc1ccccc1SC1=C(C(=O)O)N2C(=O)[C@@H](NC(=O)CSCCCI)[C@H]2SC1 [Cmpd 134, (7R)-7-[(3-iodoprop-1-ylthioacetyl)amino]-3-(2-isothiouroniummethylphenylthio)-3-cephem-4-carboxylate, inner salt] |  | 8 | 16 | 1 | > 32 | 0.125 |  | 0.125 |  | 0.5 | > 32 |
| CSCC(=O)N[C@@H]1C(=O)N2C(C(=O)O)=C(Sc3ccccc3CNC(=N)N)CS[C@H]12 [Cmpd 135, (7R)-7-[(Methylthioacetyl)amino]-3-(2-guanidiniummethylphenylthio)-3-cephem-4-carboxylate, inner salt] |  | 16 | 32 | 2 to 4 | > 32 |  |  | ≤ 0.06 | 0.125 | 2 to 4 | > 32 |
